Three compounds from article doi:10.1101/2023.12.04.569845, “Identification of 4-(6-((2-methoxyphenyl)amino)pyrazin-2-yl)benzoic acids as CSNK2A inhibitors with antiviral activity and improved selectivity over PIM3” (bioRxiv, 2023) can be followed below.

Where two headings read alike, the source gives them in different places.

Holding throughout (assay): biochemical
One assay deals with HIPK2 (Homo sapiens, UniProt Q9H2X6). Details: Thermal shift (DSF, SYPRO Orange) Tm shift of recombinant kinase domains at 10 uM compound.
HIPK2, sequence (Q9H2X6 whole entry, the tested form may be a part): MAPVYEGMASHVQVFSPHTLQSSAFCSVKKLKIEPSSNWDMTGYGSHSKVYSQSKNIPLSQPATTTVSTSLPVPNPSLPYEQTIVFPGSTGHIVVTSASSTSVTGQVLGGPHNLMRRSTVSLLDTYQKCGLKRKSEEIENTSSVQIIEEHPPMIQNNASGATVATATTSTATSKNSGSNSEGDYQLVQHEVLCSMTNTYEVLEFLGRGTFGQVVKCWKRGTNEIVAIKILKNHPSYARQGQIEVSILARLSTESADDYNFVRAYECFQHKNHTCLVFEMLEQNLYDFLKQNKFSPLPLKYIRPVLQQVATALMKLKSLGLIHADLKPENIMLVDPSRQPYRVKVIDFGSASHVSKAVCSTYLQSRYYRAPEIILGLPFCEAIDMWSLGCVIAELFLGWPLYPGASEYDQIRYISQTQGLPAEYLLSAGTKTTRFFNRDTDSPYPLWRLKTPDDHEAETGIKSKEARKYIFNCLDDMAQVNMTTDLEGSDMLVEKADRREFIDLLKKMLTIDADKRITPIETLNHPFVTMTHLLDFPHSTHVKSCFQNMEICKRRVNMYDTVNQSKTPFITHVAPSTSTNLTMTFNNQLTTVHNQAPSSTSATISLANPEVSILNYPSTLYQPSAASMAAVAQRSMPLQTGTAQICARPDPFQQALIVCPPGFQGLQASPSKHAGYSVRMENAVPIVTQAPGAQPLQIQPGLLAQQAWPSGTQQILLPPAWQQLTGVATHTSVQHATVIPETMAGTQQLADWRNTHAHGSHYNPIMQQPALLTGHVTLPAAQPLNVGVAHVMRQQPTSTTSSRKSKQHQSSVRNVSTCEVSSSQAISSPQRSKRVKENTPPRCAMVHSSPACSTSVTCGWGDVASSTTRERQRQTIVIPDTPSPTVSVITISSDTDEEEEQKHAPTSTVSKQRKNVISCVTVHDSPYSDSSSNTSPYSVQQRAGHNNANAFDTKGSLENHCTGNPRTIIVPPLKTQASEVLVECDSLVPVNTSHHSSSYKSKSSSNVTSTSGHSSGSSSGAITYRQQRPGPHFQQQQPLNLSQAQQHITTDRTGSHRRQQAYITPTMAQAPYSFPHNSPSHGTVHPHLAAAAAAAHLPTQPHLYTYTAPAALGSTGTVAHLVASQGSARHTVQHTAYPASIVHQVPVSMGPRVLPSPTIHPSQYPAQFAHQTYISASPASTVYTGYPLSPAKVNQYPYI
For the next assay, the target named is CDK2 (Homo sapiens, UniProt P24941). The arrangement: Thermal shift (DSF, SYPRO Orange) Tm shift of recombinant kinase domains at 10 uM compound.
The next assay addresses PIM1 (Homo sapiens, UniProt P11309). Details: Thermal shift (DSF, SYPRO Orange) Tm shift of recombinant kinase domains at 10 uM compound.
The target of a further assay is T1, CSNK2a1 (Homo sapiens, UniProt P68400).
T1 construct: kinase domain
T1 sequence (P68400 whole entry, the tested form may be a part): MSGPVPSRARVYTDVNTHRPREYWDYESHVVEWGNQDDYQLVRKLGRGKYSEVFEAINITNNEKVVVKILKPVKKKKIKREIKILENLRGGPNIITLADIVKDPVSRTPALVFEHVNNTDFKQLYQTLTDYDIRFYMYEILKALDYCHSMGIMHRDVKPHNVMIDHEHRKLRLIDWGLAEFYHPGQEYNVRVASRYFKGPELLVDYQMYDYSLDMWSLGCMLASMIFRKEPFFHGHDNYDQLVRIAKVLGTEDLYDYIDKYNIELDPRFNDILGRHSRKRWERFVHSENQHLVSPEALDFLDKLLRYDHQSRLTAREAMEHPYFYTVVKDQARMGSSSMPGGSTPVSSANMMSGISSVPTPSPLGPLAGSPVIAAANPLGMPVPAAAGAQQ
Details: Thermal shift (DSF, SYPRO Orange) Tm shift of recombinant kinase domains at 10 uM compound.

The target in another assay is T2, TIF1 (Homo sapiens, UniProt O15164).
T2 construct: gene TRIM24
T2 sequence (O15164 1-1050): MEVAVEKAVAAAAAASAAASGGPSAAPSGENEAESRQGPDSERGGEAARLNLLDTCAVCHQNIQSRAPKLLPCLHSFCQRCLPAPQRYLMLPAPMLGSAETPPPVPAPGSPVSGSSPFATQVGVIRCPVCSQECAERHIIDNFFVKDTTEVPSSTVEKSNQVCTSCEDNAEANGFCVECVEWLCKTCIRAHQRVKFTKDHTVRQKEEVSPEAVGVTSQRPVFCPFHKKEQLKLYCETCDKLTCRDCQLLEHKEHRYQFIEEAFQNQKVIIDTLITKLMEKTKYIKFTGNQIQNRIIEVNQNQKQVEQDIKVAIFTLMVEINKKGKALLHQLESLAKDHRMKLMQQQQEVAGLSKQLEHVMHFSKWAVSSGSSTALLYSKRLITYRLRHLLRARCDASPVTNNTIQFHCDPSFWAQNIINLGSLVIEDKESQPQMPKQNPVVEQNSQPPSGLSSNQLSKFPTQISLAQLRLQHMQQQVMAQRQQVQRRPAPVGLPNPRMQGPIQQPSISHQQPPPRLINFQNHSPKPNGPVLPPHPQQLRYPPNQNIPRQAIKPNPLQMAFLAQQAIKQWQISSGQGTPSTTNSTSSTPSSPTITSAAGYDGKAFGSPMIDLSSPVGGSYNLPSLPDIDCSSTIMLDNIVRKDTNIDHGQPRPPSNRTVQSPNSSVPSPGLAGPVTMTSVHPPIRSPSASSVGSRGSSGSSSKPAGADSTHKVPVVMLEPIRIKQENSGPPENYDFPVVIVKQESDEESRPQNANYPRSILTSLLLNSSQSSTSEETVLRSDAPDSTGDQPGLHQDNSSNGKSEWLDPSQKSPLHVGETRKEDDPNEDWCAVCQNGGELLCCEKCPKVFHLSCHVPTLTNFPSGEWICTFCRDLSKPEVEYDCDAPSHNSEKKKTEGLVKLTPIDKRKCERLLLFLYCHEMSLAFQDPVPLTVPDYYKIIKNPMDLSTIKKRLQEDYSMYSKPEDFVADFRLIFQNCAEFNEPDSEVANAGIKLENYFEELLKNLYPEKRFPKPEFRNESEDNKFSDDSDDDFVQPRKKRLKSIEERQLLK
The arrangement: Thermal shift assay (SYPRO Orange DSF) of recombinant kinase domains; Tm shift. The method, then: (§1) S23 Thermal stability kinase selectivity. The assay was performed as previously described. 9,10 Briefly, recombinant protein kinase domains at a concentration of 2 μM were mixed with 10 μM compound in a buffer containing 20 mM HEPES, pH 7.5, and 500 mM NaCl. SYPRO Orange (5000×, Invitrogen) was added as a fluorescence probe (1 µl per mL). Subsequently, temperature-dependent protein unfolding profiles were measured using the QuantStudio™ 5 realtime PCR machine (Thermo Fisher). Excitation and emission filters were set to 465 nm and 590 nm, respectively. The temperature was raised with a step rate of 3°C per minute. Data points were analysed with the internal software (Thermal Shift SoftwareTM Version 1.4, Thermo Fisher) using the Boltzmann equation to determine the inflection point of the transition curve.

The next assay concerns the target T3, ATK3 (Homo sapiens, UniProt Q9Y243).
T3 construct: gene AKT3; kinase domain
Details: Thermal shift assay (SYPRO Orange DSF) of recombinant kinase domains; Tm shift. The method, then: as §1

T3 sequence (Q9Y243 whole entry, the tested form may be a part): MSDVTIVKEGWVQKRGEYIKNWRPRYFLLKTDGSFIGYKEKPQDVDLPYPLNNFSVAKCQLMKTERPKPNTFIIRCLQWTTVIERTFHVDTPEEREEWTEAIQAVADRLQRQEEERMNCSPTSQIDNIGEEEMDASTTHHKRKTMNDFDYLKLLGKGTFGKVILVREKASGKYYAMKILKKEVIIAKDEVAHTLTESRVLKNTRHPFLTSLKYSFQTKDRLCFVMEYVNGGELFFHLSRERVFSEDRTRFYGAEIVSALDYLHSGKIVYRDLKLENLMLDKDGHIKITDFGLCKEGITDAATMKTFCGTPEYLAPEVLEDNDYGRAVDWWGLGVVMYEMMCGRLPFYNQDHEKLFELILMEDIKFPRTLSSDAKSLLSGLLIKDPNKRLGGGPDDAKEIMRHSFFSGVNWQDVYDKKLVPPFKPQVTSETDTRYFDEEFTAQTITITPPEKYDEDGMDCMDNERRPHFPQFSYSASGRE
PIM1, sequence (P11309 whole entry, the tested form may be a part): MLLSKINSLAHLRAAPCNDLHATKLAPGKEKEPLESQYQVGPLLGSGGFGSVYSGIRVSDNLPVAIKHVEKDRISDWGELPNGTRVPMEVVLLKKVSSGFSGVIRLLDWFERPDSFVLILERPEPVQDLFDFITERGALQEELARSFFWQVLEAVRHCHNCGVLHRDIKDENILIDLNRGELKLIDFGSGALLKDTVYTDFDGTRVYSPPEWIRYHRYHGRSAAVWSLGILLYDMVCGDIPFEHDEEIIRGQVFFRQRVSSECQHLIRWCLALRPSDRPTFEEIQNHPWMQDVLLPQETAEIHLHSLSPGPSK

On to `CC(C)Oc1ccc2ccn(-c3cncc(-c4ccc(C(=O)O)cc4)n3)c2c1` [6c], for which the ΔTm at 10 µM on HIPK2 (read-out: 6c) was 9 °C; at CDK2 (read-out: 6c) it was 5 °C; on PIM1 (read-out: 6c), 10 °C; on CSNK2a1 (read-out: 6c), 15 °C; on TIF1 (read-out: 6c), -2 °C; at ATK3 (read-out: 6c) it was -1 °C.

Turning to `COc1ccc(OC(C)C)cc1Nc1cncc(-c2ccc(C(=O)O)cc2)n1` [7c], the ΔTm at 10 µM is 7 °C on HIPK2 (read-out: 7c); 1 °C on CDK2 (read-out: 7c); 9 °C on PIM1 (read-out: 7c); 15 °C at CSNK2a1 (read-out: 7c); -1 °C at TIF1 (read-out: 7c); -1 °C at ATK3 (read-out: 7c).

On to `CC(C)Nc1ccc2cnn(-c3cncc(-c4ccc(C(=O)O)cc4)n3)c2c1` [compound 2, 2], for which the ΔTm at 10 µM came out at 0 °C at TIF1 (read-out: 2) and 1 °C at ATK3 (read-out: 2).
